Laboratory results published in US9676757B2, “Heterocyclic compounds as NaV channel inhibitors and uses thereof” (Merck Patent GmbH, priority 2014, dated 2017).
pIC50: −log10 of the molar value. Structures can show the parent of a compound that is named as a salt. Where two headings read alike, the source gives them in different places.

Legend:
Nav1.6 = Nav1.6 (Homo sapiens, UniProt Q9UQD0); assay: Nav two-pulse protocol, IonWorks Quattro electrophysiology; assay type: cell-based; settings: -120 mV to 0 mV, compound incubated 300 s
Chain of Nav1.6 (Q9UQD0 whole entry): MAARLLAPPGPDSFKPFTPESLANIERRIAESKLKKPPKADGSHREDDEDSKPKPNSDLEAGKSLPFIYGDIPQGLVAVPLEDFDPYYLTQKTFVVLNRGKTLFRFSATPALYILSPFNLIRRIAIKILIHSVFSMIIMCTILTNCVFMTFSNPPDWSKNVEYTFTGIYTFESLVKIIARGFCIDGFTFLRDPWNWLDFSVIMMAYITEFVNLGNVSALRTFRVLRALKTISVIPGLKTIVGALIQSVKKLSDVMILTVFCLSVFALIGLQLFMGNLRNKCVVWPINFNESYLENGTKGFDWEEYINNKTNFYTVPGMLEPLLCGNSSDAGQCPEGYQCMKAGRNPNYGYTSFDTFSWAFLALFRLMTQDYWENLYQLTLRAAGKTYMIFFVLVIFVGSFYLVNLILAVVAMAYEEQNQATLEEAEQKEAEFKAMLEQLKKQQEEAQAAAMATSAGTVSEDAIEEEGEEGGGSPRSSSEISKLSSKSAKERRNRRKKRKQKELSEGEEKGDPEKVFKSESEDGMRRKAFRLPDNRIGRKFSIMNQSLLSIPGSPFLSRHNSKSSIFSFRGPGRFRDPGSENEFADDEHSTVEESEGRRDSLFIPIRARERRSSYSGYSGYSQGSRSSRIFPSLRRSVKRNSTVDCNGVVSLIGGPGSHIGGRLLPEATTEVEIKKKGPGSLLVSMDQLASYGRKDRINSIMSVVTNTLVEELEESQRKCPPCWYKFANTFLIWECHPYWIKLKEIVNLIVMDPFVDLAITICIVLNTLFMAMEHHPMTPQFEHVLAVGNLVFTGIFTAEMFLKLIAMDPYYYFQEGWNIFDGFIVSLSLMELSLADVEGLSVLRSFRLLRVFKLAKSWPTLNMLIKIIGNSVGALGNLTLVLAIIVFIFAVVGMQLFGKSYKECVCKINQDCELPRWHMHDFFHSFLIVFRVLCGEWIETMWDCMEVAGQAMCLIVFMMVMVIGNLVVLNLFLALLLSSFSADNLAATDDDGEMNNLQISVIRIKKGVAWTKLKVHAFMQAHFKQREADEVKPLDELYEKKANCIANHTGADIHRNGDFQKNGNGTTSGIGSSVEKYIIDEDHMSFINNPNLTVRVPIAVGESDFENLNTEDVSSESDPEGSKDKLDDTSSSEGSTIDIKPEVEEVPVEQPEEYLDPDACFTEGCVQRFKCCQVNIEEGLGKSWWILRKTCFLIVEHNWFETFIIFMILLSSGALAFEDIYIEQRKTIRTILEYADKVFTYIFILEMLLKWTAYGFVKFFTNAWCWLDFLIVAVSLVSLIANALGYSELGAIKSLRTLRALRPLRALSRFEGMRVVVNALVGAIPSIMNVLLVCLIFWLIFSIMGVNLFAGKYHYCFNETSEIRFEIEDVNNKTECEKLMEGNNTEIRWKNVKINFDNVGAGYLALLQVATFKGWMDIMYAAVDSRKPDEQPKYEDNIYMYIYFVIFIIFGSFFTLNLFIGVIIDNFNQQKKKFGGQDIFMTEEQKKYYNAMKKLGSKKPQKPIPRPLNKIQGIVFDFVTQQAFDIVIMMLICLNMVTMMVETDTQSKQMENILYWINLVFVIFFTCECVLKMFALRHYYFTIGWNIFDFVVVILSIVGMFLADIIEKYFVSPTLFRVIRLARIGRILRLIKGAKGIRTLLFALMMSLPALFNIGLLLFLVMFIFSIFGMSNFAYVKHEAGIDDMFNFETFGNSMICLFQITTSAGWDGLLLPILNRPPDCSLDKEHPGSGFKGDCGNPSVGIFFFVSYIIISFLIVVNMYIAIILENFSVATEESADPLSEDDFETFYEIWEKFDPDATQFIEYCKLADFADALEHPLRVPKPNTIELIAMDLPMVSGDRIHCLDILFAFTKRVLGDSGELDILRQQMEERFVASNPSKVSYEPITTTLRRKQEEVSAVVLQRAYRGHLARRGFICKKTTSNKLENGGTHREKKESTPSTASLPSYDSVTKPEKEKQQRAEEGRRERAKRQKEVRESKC
In short: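 Two-pulse protocol on IonWorks Quattro with amphotericin B (200 μg/ml) perforated patch: holding −120 mV, 2.5 s step to 0 mV, 5 ms gap, 20 ms step to 0 mV. Compounds (0.3% DMSO final) incubated 300 s; block taken as Post/Pre peak inward current for each pulse.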

[1] = secondary progressive MS patients; over 2 years; p=0.02; cited from earlier work

Q: With `CC(C)COc1cccc(CN2CCC(c3noc(-c4cc(Br)ccn4)n3)C2)c1` (stereo not shown) [Compound 58, 4-Bromo-2-{3-[1-(3-isobutoxy-benzyl)-pyrrolidin-3-yl]-[1,2,4]oxadiazol-5-yl}-pyridine] as the compound, how does the pIC50 (Nav1.6; read-out: Nav1.6 Tonic) read?
A: Its pIC50 is < 4.70.

Q: And the pIC50 (Nav1.6; read-out: Nav1.6 inac)?
A: The pIC50 was < 5.30.

Q: With `Cc1cccc(Oc2cccc(CN3CCC(F)(C(=O)NCc4ccccn4)C3)c2)c1` (stereo not shown) [Compound 21, 3-Fluoro-1-(3-m-tolyloxy-benzyl)-pyrrolidine-3-carboxylic acid (pyridin-2-ylmethyl)-amide] as the compound, how does the pIC50 (Nav1.6; read-out: Nav1.6 Tonic) read?
A: Its pIC50 is < 4.70.

Q: And the pIC50 (Nav1.6; read-out: Nav1.6 inac)?
A: The pIC50 was 5.30 to 6.00.

Q: With `O=C(NCc1ccccc1F)C1CCN(Cc2cccc(Oc3ccccc3)c2)C1` (stereo not shown) [Compound 73, 1-(3-Phenoxy-benzyl)-pyrrolidine-3-carboxylic acid 2-fluoro-benzylamide] as the compound, how does the pIC50 (Nav1.6; read-out: Nav1.6 Tonic) read?
A: Its pIC50 is 4.70 to 5.00.

Q: And the pIC50 (Nav1.6; read-out: Nav1.6 inac)?
A: Its pIC50 is 5.30 to 6.00.

Q: With `Cc1ccc(CNC(=O)C2CCN(Cc3cccc(Oc4ccccc4)c3)C2)cc1` (stereo not shown) [Compound 83, 1-(3-Phenoxy-benzyl)-pyrrolidine-3-carboxylic acid 4-methyl-benzylamide] as the compound, how does the pIC50 (Nav1.6; read-out: Nav1.6 Tonic) read?
A: The pIC50 was < 4.70.

Q: What about the pIC50 (Nav1.6; read-out: Nav1.6 inac) of the same compound?
A: The pIC50 was 5.30 to 6.00.

Q: With `O=C(NCc1nc(-c2ccccc2)cs1)C1CCN(Cc2cccc(Oc3ccccc3)c2)C1` (stereo not shown) [Compound 85, 1-(3-Phenoxy-benzyl)-pyrrolidine-3-carboxylic acid (4-phenyl-thiaz-1-2-ylmethyl)-amide] as the compound, how does the pIC50 (Nav1.6; read-out: Nav1.6 Tonic) read?
A: The pIC50 was < 4.70.

Q: What about the pIC50 (Nav1.6; read-out: Nav1.6 inac) of the same compound?
A: Its pIC50 is 5.30 to 6.00.

Q: With `O=C(NCCc1c[nH]cn1)C1CCN(Cc2cccc(Oc3ccccc3)c2)C1` (stereo not shown) [Compound 86, 1-(3-Phenoxy-benzyl)-pyrrolidine-3-carboxylic acid [2-(1H-imidazol-4-yl)-ethyl]-amide] as the compound, how does the pIC50 (Nav1.6; read-out: Nav1.6 inac) read?
A: The pIC50 was < 5.30.

Q: With `O=C(NCc1ccccn1)C1CCN(Cc2cccc(OC(F)(F)F)c2)C1` (stereo not shown) [Compound 109, 1-(3-Trifluoromethoxy-benzyl)-pyrrolidine-3-carboxylic acid (pyridin-2-ylmethyl)-amide hydrochloride] as the compound, how does the pIC50 (Nav1.6; read-out: Nav1.6 Tonic) read?
A: Its pIC50 is 4.70 to 5.00.

Q: What about the pIC50 (Nav1.6; read-out: Nav1.6 inac) of the same compound?
A: The pIC50 was > 6.00.

Q: With `O=C(NCc1ccccn1)C1CCN(Cc2cccc(Oc3cccc(C(F)(F)F)c3)c2)C1` (stereo not shown) [Compound 5, 1-[3-(3-Trifluoromethyl-phenoxy)-benzyl]-pyrrolidine-3-carboxylic acid (pyridin-2-ylmethyl)-amide] as the compound, how does the pIC50 (Nav1.6; read-out: Nav1.6 Tonic) read?
A: The pIC50 was < 4.70.

Q: What about the pIC50 (Nav1.6; read-out: Nav1.6 inac) of the same compound?
A: Its pIC50 is > 6.00.

Q: With `O=C(NCc1ccccn1)C1CCN(Cc2cccc(Oc3ccc(F)cc3)n2)C1` (stereo not shown) [Compound 20, 1-[6-(4-Fluoro-phenoxy)-pyridin-2-ylmethyl]-pyrrolidine-3-carboxylic acid (pyridin-2-ylmethyl)-amide] as the compound, how does the pIC50 (Nav1.6; read-out: Nav1.6 Tonic) read?
A: The pIC50 was < 4.70.

Q: And the pIC50 (Nav1.6; read-out: Nav1.6 inac)?
A: The pIC50 was < 5.30.

Q: With `CCNC(=O)C1(C)CCN(Cc2cccc(OC(F)(F)F)c2)C1` (stereo not shown) [Compound 41, 3-Methyl-1-(3-trifluoromethoxy-benzyl)-pyrrolidine-3-carboxylic acid ethylamide] as the compound, how does the pIC50 (Nav1.6; read-out: Nav1.6 Tonic) read?
A: The pIC50 was 4.70 to 5.00.

Q: And the pIC50 (Nav1.6; read-out: Nav1.6 inac)?
A: The pIC50 was > 6.00.

Q: With `COc1ccnc(-c2nc(C3CCN(Cc4cccc(OCC(C)C)c4)C3)no2)c1` (stereo not shown) [Compound 52, 2-{3-[1-(3-Isobutoxy-benzyl)-pyrrolidin-3-yl]-[1,2,4]oxadiazol-5-yl}-4-methoxy-pyridine] as the compound, how does the pIC50 (Nav1.6; read-out: Nav1.6 Tonic) read?
A: Its pIC50 is < 4.70.

Q: What about the pIC50 (Nav1.6; read-out: Nav1.6 inac) of the same compound?
A: Its pIC50 is 5.30 to 6.00.

Q: Which results are given for `O=C(NCc1ccccn1)C1CCN(Cc2cccc(-c3ccccc3)c2)C1` (stereo not shown) [Compound 29, 1-Biphenyl-3-ylmethyl-pyrrolidine-3-carboxylic acid (pyridin-2-ylmethyl)-amide]?
A: pIC50 (Nav1.6; read-out: Nav1.6 Tonic): 4.70 to 5.00; pIC50 (Nav1.6; read-out: Nav1.6 inac): 5.30 to 6.00

Q: With `CC1(C(=O)N2CCNCC2)CCN(Cc2cccc(Oc3ccccc3)c2)C1` (stereo not shown) [Compound 39, [3-Methyl-1-(3-phenoxy-benzyl)-pyrrolidin-3-yl]-piperazin-1-yl-methanone] as the compound, how does the pIC50 (Nav1.6; read-out: Nav1.6 Tonic) read?
A: The pIC50 was < 4.70.

Q: And the pIC50 (Nav1.6; read-out: Nav1.6 inac)?
A: The pIC50 was 5.30 to 6.00.

Q: With `Cn1ccnc1CNC(=O)C1(C)CCN(Cc2cccc(Oc3ccccc3)c2)C1` (stereo not shown) [Compound 101, 3-Methyl-1-(3-phenoxy-benzyl)-pyrrolidine-3-carboxylic acid (1-methyl-1H-imidazol-2-ylmethyl)-amide] as the compound, how does the pIC50 (Nav1.6; read-out: Nav1.6 Tonic) read?
A: The pIC50 was < 4.70.

Q: What about the pIC50 (Nav1.6; read-out: Nav1.6 inac) of the same compound?
A: The pIC50 was 5.30 to 6.00.

Q: With `O=C(NCc1cc(F)cc(F)c1)C1CCN(Cc2cccc(Oc3ccccc3)c2)C1` (stereo not shown) [Compound 76, 1-(3-Phenoxy-benzyl)-pyrrolidine-3-carboxylic acid 3,5-difluoro-benzylamide] as the compound, how does the pIC50 (Nav1.6; read-out: Nav1.6 Tonic) read?
A: Its pIC50 is 4.70 to 5.00.

Q: And the pIC50 (Nav1.6; read-out: Nav1.6 inac)?
A: The pIC50 was > 6.00.

Q: With `O=C(NCc1ccccc1C(F)(F)F)C1CCN(Cc2cccc(Oc3ccccc3)c2)C1` (stereo not shown) [Compound 72, 1-(3-Phenoxy-benzyl)-pyrrolidine-3-carboxylic acid 2-trifluoromethyl-benzylamide] as the compound, how does the pIC50 (Nav1.6; read-out: Nav1.6 Tonic) read?
A: Its pIC50 is 4.70 to 5.00.

Q: And the pIC50 (Nav1.6; read-out: Nav1.6 inac)?
A: Its pIC50 is 5.30 to 6.00.

Q: With `CC(C)CS(=O)(=O)c1cccc(CN2CCC(C(=O)OCc3ccccn3)C2)c1` (stereo not shown) [Compound 47, 1-[3-(2-Methyl-propane-1-sulfonyl)-benzyl]-pyrrolidine-3-carboxylic acid pyridin-2-ylmethyl ester] as the compound, how does the pIC50 (Nav1.6; read-out: Nav1.6 Tonic) read?
A: The pIC50 was < 4.70.

Q: And the pIC50 (Nav1.6; read-out: Nav1.6 inac)?
A: Its pIC50 is 5.30 to 6.00.

Q: With `COc1cccc(-c2nc(C3CCN(Cc4cccc(OCC(C)C)c4)C3)no2)n1` (stereo not shown) [Compound 56, 2-{3-[1-(3-Isobutoxy-benzyl)-pyrrolidin-3-yl]-[1,2,4]oxadiazol-5-yl}-6-methoxy-pyridine] as the compound, how does the pIC50 (Nav1.6; read-out: Nav1.6 Tonic) read?
A: The pIC50 was < 4.70.

Q: And the pIC50 (Nav1.6; read-out: Nav1.6 inac)?
A: The pIC50 was 5.30 to 6.00.

Q: With `COc1cccc(Oc2cccc(CN3CCC(F)(C(=O)NCc4ccccn4)C3)c2)c1` (stereo not shown) [Compound 23, 3-Fluoro-1-[3-(3-methoxy-phenoxy)-benzyl]-pyrrolidine-3-carboxylic acid (pyridin-2-ylmethyl)-amide] as the compound, how does the pIC50 (Nav1.6; read-out: Nav1.6 Tonic) read?
A: Its pIC50 is < 4.70.

Q: And the pIC50 (Nav1.6; read-out: Nav1.6 inac)?
A: The pIC50 was 5.30 to 6.00.

Q: For `Nc1nnc(-c2cccc(Cl)c2Cl)c(N)n1` [Lamotrigine], which “deterioration of the timed 25-foot walk” value [1] is on record?
A: Its value is “reduced the deterioration of the timed 25-foot walk”.

Q: With `Cc1cnc(CNC(=O)C2CCN(Cc3cccc(OCC(F)(F)F)c3)C2)cn1` (stereo not shown) [Compound 89, 1-[3-(2,2,2-Trifluoro-ethoxy)-benzyl]-pyrrolidine-3-carboxylic acid (5-methyl-pyrazin-2-ylmethyl)-amide] as the compound, how does the pIC50 (Nav1.6; read-out: Nav1.6 Tonic) read?
A: The pIC50 was < 4.70.

Q: And the pIC50 (Nav1.6; read-out: Nav1.6 inac)?
A: Its pIC50 is 5.30 to 6.00.

Q: With `Cc1cccc(Oc2cccc(CN3CCC(C)(C(=O)NCc4ccccn4)C3)c2)c1` (stereo not shown) [Compound 45, 3-Methyl-1-(3-m-tolyloxy-benzyl)-pyrrolidine-3-carboxylic acid (pyridin-2-ylmethyl)-amide] as the compound, how does the pIC50 (Nav1.6; read-out: Nav1.6 Tonic) read?
A: The pIC50 was < 4.70.

Q: And the pIC50 (Nav1.6; read-out: Nav1.6 inac)?
A: Its pIC50 is < 5.30.

Q: With `O=C(NCc1ccccn1)C1(F)CCN(Cc2cccc(Oc3ccc(F)c(F)c3)c2)C1` (stereo not shown) [Compound 24, 1-[3-(3,4-Difluoro-phenoxy)-benzyl]-3-fluoro-pyrrolidine-3-carboxylic acid (pyridin-2-ylmethyl)-amide] as the compound, how does the pIC50 (Nav1.6; read-out: Nav1.6 Tonic) read?
A: Its pIC50 is < 4.70.

Q: What about the pIC50 (Nav1.6; read-out: Nav1.6 inac) of the same compound?
A: The pIC50 was 5.30 to 6.00.

Q: With `Cc1cccc(CNC(=O)C2CCN(Cc3cccc(Oc4ccccc4)c3)C2)c1` (stereo not shown) [Compound 82, 1-(3-Phenoxy-benzyl)-pyrrolidine-3-carboxylic acid 3-methyl-benzylamide] as the compound, how does the pIC50 (Nav1.6; read-out: Nav1.6 Tonic) read?
A: Its pIC50 is 4.70 to 5.00.

Q: What about the pIC50 (Nav1.6; read-out: Nav1.6 inac) of the same compound?
A: Its pIC50 is > 6.00.

Q: With `CC(C)COc1cccc(CN2CCC(c3noc(-c4ccc(F)cn4)n3)C2)c1` (stereo not shown) [Compound 59, 5-Fluoro-2-{3-[1-(3-isobutoxy-benzyl)-pyrrolidin-3-yl]-[1,2,4]oxadiazol-5-yl}-pyridine] as the compound, how does the pIC50 (Nav1.6; read-out: Nav1.6 Tonic) read?
A: The pIC50 was < 4.70.

Q: What about the pIC50 (Nav1.6; read-out: Nav1.6 inac) of the same compound?
A: Its pIC50 is < 5.30.

Q: What does the source list for `Cc1ccc(F)cc1CNC(=O)C1CCN(Cc2cccc(Oc3ccccc3)c2)C1` (stereo not shown) [Compound 84, 1-(3-Phenoxy-benzyl)-pyrrolidine-3-carboxylic acid 5-fluoro-2-methyl-benzylamide]?
A: pIC50 (Nav1.6; read-out: Nav1.6 Tonic): 4.70 to 5.00; pIC50 (Nav1.6; read-out: Nav1.6 inac): > 6.00

Q: With `CC(C)COc1cccc(CN2CCC(c3nnc(CO)o3)C2)c1` (stereo not shown) [Compound 64, {5-[1-(3-Isobutoxy-benzyl)-pyrrolidin-3-yl]-[1,3,4]oxadiazol-2-yl}-methanol] as the compound, how does the pIC50 (Nav1.6; read-out: Nav1.6 Tonic) read?
A: Its pIC50 is < 4.70.

Q: And the pIC50 (Nav1.6; read-out: Nav1.6 inac)?
A: The pIC50 was 5.30 to 6.00.

Q: With `O=C(NCc1ccc(OC(F)(F)F)cc1)C1CCN(Cc2cccc(Oc3ccccc3)c2)C1` (stereo not shown) [Compound 67, 1-(3-Phenoxy-benzyl)-pyrrolidine-3-carboxylic acid 4-trifluoromethoxy-benzylamide] as the compound, how does the pIC50 (Nav1.6; read-out: Nav1.6 Tonic) read?
A: The pIC50 was 4.70 to 5.00.

Q: What about the pIC50 (Nav1.6; read-out: Nav1.6 inac) of the same compound?
A: The pIC50 was > 6.00.

Q: With `C[C@@]1(C(=O)NCc2ccccn2)CCN(Cc2cccc(Oc3ccccc3)c2)C1` [Compound 37, (R)-3-methyl-1-(3-phenoxybenzyl)-N-(pyridin-2-ylmethyl)pyrrolidine-3-carboxamide] as the compound, how does the pIC50 (Nav1.6; read-out: Nav1.6 Tonic) read?
A: Its pIC50 is < 4.70.

Q: What about the pIC50 (Nav1.6; read-out: Nav1.6 inac) of the same compound?
A: The pIC50 was 5.30 to 6.00.

Q: Which results are given for `Cc1ccc(-c2nc(C3CCN(Cc4cccc(OCC(C)C)c4)C3)no2)nc1` (stereo not shown) [Compound 55, 2-{3-[1-(3-Isobutoxy-benzyl)-pyrrolidin-3-yl]-[1,2,4]oxadiazol-5-yl}-5-methyl-pyridine]?
A: pIC50 (Nav1.6; read-out: Nav1.6 Tonic): < 4.70; pIC50 (Nav1.6; read-out: Nav1.6 inac): 5.30 to 6.00
